Assay [1] addresses T1, ACE (Oryctolagus cuniculus, UniProt P12822).
T1 construct: purchased Sigma-Aldrich (Shanghai, China)
T1 sequence (P12822 34-1310): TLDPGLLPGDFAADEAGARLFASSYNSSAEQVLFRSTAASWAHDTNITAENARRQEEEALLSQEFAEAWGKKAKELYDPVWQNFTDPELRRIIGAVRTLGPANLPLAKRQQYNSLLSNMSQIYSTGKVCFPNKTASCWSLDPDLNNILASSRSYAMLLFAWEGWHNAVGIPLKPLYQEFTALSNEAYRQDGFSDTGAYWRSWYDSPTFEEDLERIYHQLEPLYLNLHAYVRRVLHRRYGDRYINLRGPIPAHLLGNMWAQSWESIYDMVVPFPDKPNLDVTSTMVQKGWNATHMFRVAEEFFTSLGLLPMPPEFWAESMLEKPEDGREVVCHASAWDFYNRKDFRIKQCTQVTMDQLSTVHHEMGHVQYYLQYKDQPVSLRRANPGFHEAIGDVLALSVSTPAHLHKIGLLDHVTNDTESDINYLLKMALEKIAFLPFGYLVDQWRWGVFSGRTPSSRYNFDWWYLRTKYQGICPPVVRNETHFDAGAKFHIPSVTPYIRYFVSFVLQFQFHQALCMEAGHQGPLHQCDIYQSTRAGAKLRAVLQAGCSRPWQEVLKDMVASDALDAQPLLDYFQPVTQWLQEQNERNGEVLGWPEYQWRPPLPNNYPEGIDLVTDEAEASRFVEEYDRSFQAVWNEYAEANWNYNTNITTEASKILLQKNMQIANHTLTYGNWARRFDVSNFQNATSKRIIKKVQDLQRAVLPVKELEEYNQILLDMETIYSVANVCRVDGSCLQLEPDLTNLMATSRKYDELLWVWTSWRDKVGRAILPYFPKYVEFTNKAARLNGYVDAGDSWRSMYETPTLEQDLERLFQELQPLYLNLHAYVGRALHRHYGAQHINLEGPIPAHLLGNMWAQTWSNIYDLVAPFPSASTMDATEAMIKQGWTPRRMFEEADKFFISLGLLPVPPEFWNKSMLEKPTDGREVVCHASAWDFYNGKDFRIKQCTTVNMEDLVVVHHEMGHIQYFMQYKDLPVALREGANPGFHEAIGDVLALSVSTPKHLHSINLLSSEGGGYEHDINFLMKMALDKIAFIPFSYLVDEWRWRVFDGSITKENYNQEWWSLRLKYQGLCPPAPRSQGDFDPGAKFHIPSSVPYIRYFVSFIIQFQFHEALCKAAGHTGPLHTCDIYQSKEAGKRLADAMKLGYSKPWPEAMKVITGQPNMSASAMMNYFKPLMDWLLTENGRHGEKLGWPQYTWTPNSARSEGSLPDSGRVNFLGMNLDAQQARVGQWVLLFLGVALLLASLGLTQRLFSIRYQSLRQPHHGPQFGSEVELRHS
As to the kind of experiment: Inhibition pattern by Lineweaver-Burk plot. The class given is biochemical. The following applies: HHL 1-5 mM, HLHT 0, 295.86, 591.72 μM, GWA 0, 98.62, 197.24 μM, pre-incubated 37 °C 10 min, 5 min incubation with HHL, HPLC 228 nm. On the procedure: The inhibitory patterns of purified peptides HLHT and GWA on ACE were evaluated by incubating various concentrations (1, 2, 3, 4, and 5 mM) of HHL with ACE in the absence and presence of inhibitory peptides. The concentrations of HLHT were set as 0, 295.86, and 591.72 μM while those of GWA were set as 0, 98.62, and 197.24 μM. The purified ACE inhibitory peptide (30 µL) at various concentrations and ACE solution (30 µL) were mixed and pre-incubated at 37 °C for 10 min. Subsequently, HHL (40 µL) was added and incubated for 5 min at 37 °C. The reaction was terminated by adding 1 M HCl (150 µL). The released hippuric acid (HA) was quantified using HPLC at 228 nm. The ACE inhibitory pattern in the presence of the inhibitor was determined using the Lineweaver–Burk plot, where the reciprocal of HHL concentration was used as the independent variable (X-axis) and the reciprocal of production rate of HA as the dependent variable (Y-axis).

Assay [2] has as its target T2, Angiotensin-I-converting enzyme (ACE) (Oryctolagus cuniculus, UniProt P12822).
T2 construct: purchased Sigma-Aldrich (Shanghai, China)
T2 sequence (P12822 34-1310): T1 sequence (P12822 34-1310)
Nature of the assay: In vitro assay of ACE inhibitory activity. The class given is biochemical. To be noted: triplicate, mean ± SD; for ACE inhibitory activity: 0.54 mg/mL protein concentration, second RP-HPLC fractions; for IC50: logarithmic regression. On the procedure:
ACE inhibitory activity in vitro was measured according to the reported method. The activity was determined for each step of separation, and fraction with the highest ACE inhibitory activity was collected for further purification. The IC50 value (the concentration of peptide inhibiting 50% of enzyme activity) was determined by logarithmic regression analysis.
(§1) All the experiments were performed in triplicate and mean values with ± SD (standard deviation) were reported. All data were analyzed by one-way ANOVA, using SPSS 17.0 software (Chicago, IL, USA). A value of p < 0.05 was considered statistically significant.

Assay [3] relates to SD rats. Nature of the assay: Antihypertensive activity in SD rats, SBP and DBP after intravenous administration. It counts as in vivo. To be noted: 10 mg/kg. The method, then:
The antihypertensive efficacy of POMPH was evaluated in male SD rats (10 weeks old, 250 ± 30 g body weight, specific pathogen-free, provided by the animal experimental center of Guangxi medical University, China). All rats were cared and fed following the standards for laboratory animals established by People’s Republic of China (GB14925-2001) and animal handling followed the Declaration of Helsinki and the Guiding Principles in the Care and Use of Animals. The rats were exposed to intraperitoneal injection L-NNA (L-nitro-arginine) once a day for four weeks prior to the experiments. The POMPH at 10 mg/kg, dissolved in a vehicle of 0.9% NaCl, were intravenously administered. The concentration of HLHT and GWA in POMPH were 1.8 µg/mg and 1.2 µg/mg, respectively. The efficacy of POMPH on lowering SBP and diastolic blood pressure (DBP) was compared to that of captopril (10 mg/kg). Control rats were administrated with the same volume of saline solution. SBP and DBP were determined by the noninvasive tail cuff method using BP-2010 (Softron Beijing biotechnology Co., Ltd) at 0 min (before) and 5, 10, 20 and 45 min after the administration.
as §1

Assay [4] has as its target T1, ACE. To be noted: cited from earlier work. The source says:
Table 2 Summary of ACE inhibitory peptides having similar structure with purified peptides. | column: IC50 (μM) || Table 3 Inhibition pattern of ACE inhibitory peptides derived from marine products. | column: Inhibition Pattern; IC50 (μM)

The target of assay [5] is T3, Angiotensin I converting enzyme (UniProt P12822).
T3 sequence: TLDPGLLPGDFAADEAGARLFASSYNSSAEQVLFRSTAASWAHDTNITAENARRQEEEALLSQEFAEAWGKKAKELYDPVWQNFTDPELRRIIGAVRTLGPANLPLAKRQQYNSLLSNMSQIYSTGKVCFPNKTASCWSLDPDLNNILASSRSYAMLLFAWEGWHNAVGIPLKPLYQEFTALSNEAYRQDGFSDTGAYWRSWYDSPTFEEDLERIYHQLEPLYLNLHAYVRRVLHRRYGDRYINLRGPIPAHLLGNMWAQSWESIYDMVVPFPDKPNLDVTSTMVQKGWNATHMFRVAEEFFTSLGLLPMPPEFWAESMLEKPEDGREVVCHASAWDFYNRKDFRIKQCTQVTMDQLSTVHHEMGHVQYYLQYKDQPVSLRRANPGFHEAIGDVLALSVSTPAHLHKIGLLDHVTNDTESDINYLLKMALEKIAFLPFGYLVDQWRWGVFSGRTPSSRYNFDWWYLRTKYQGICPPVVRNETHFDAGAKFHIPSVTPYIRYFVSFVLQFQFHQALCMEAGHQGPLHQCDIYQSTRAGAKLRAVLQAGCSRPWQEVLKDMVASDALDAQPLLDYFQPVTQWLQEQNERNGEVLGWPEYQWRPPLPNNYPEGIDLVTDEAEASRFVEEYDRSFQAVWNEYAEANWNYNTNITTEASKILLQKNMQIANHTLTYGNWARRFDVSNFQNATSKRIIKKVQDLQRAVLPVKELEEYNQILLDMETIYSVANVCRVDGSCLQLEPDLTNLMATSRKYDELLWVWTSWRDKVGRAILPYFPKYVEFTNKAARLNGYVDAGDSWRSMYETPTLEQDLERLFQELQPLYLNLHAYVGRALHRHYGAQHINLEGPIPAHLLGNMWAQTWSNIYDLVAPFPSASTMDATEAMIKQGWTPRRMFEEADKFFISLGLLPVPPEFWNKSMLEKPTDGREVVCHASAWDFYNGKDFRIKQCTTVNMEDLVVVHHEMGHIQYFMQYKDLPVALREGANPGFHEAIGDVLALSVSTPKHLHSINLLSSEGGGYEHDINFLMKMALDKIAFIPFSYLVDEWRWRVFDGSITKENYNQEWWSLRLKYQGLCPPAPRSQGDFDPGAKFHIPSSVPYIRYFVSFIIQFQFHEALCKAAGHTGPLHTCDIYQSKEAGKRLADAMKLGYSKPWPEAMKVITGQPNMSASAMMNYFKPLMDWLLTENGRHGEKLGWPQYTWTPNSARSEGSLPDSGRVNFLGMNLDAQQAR

Assay [6] concerns the target T3, Angiotensin I converting enzyme. The source holds these as a separate data set.
Where [7] appears, read: synthesized peptide (98% purity).

Data on 21 molecules can be found in paper PMC6723713, “Purification, Characterization and Evaluation of Inhibitory Mechanism of ACE Inhibitory Peptides from Pearl Oyster (Pinctada fucata martensii) Meat Protein Hydrolysate” (Marine Drugs, 2019).

Read-outs that look alike come from different tables or passages of the source. Where a SMILES comes first, the peptide text is derived from it.

For orientation: IC50 means the concentration that gives 50% inhibition. Regarding `C[C@H](NC(=O)[C@H](Cc1c[nH]c2ccccc12)NC(=O)CN)C(=O)O` [GWA, Gly-Trp-Ala] (H-Gly-Trp-Ala-OH), the Inhibition Pattern result in assay [1] is recorded as “competitive inhibition pattern”. Besides, the ACE inhibitory activity in assay [2] is recorded as 84.71 ± 1.27%. The values for the IC50 in assay [2] (peptide purified from POMPH) and in assay [2] (setting [7]) were 109 ± 1.45 µM and 98.9 ± 5.73 µM, respectively.
Take `CC(C)C[C@H](NC(=O)[C@@H](N)Cc1c[nH]cn1)C(=O)N[C@@H](Cc1c[nH]cn1)C(=O)N[C@H](C(=O)O)[C@@H](C)O` [HLHT, His-Leu-His-Thr] (H-HLHT-OH): the ACE inhibitory activity in assay [2] was determined as 64.73 ± 1.32%. For the same molecule, the IC50 in assay [2] (peptide purified from POMPH) came out at 458.1 ± 3.24 µM; in assay [2] (setting [7]), 452.2 ± 2.36 µM.
In the case of `C[C@H](CS)C(=O)N1CCC[C@H]1C(=O)O` [captopril], the “change in SBP vs control, in words” value in assay [3] (0-45 min) is on record as “significant decrease in SBP”. Moreover, the “maximum decrease in SBP” value in assay [3] (20 min, male L-NNA-treated SD rats, tail cuff) was 27.0 mmHg. In assay [3] (beyond 20 min (to 45 min)), the “SBP beyond 20 min” value is “remained stable”. Further, the “change in DBP vs control, in words” value in assay [3] (in comparison with control group) is recorded as “significantly changed in comparison with control group”. The “DBP after 20 min of intravenous administration” value in assay [3] ("decreased to", 20 min, male L-NNA-treated SD rats, tail cuff) came to 39.5 mmHg.
In the case of CRQHTLGHNT-QTSIAQ, the “Inhibition Pattern” value in assay [4] (ref [32]) is reported as “Non-competitive”.
Turning to CRQHTLGHNT-QTSIAQ (CRQHTLGHNTQTSIAQ), the IC50 in assay [4] (ref [32]) is 80 µM.
EVSQGRP: in assay [4] (ref [32]), the IC50 was 50 µM and the “Inhibition Pattern” value is listed as “Mixed inhibition”.
FEDYVPLSCF: in assay [4] (ref [31]), the IC50 is 10.8 µM and the “Inhibition Pattern” value is reported as “Mixed inhibition”.
GDLGKTTTVSN-WSPPKYKDTP: the “Inhibition Pattern” value in assay [4] (ref [33]) is on record as “Non-competitive”.
For the molecule “GDLGKTTTVSN-WSPPKYKDTP (GDLGKTTTVSNWSPPKYKDTP)”, the IC50 in assay [4] (ref [33]) was 11.3 µM.
On to GWAP, for which the IC50 in assay [4] (ref [28]) was 3.86 µM.
Regarding “Gly-Trp-Ala, purified from pearl oyster meat protein hydrolysate (fraction F62) (peptide)”, the ACE inhibitory activity (%) of fraction F62 at a protein concentration of 0.54 mg/mL in assay [5] was 84.7%. Also, in assay [6], the IC50 of ACE inhibitory activity (enzyme activity on HHL), peptide purified from POMPH stood at 109 µM.
In the case of Gly-Trp-Ala, synthesized (peptide), the IC50 of ACE inhibitory activity (enzyme activity on HHL), synthesized peptide in assay [6] worked out at 98.9 µM.
As to HLPLP, the IC50 in assay [4] (ref [28]) is 41 µM.
As to HLPLPLL, in assay [4] (ref [28]), the IC50 is 34.4 µM.
With IWHHT, the IC50 in assay [4] (ref [28]) is 5.1 µM.
Take VELYP: in assay [4] (ref [34]), the IC50 is 5.22 µM and the “Inhibition Pattern” value is reported as “Non-competitive”.
For VVYPWTTQRF, in assay [4] (ref [35]), the IC50 is 66 µM and the “Inhibition Pattern” value is recorded as “Non-competitive”.
For VWDPPKFD, in assay [4] (ref [31]), the IC50 is 9.1 µM and the “Inhibition Pattern” value was “Non-competitive”.
With VWYHT, in assay [4] (ref [28]), the IC50 is 28.3 µM.

B1: His-Leu-His-Thr, purified from pearl oyster meat protein hydrolysate (fraction F51) (peptide)
peptide: HLHT
Turning to B1, the ACE inhibitory activity (%) of fraction F51 at a protein concentration of 0.54 mg/mL in assay [5] was determined as 64.7%. The IC50 of ACE inhibitory activity (enzyme activity on HHL), peptide purified from POMPH in assay [6] is 458 µM.

B2: His-Leu-His-Thr, synthesized (peptide)
peptide: HLHT
B2 had an IC50 of ACE inhibitory activity (enzyme activity on HHL), synthesized peptide in assay [6] of 452 µM.
